Where a name gives a salt, the structure may show the parent alone.
Key:
[1] = tested on: anaphylactic histamine release from lung fragments; experiment: Inhibition of anaphylactic histamine release (passively sensitized lung fragments, antigen challenge); assay type: cell-based, Hartley male guinea pig; conditions: Cavia porcellus, 0.25 h; guinea pig lung fragments; DNP-egg albumin 0.3 μg/ml; compound added 10 min before antigen challenge; 37° C.; read-out: 25%-inhibitory conc. (anaphylactic histamine release)
Experimental: Inhibition of anaphylactic histamine release
Hartley male guinea pigs weighing about 450 g which were passively sensitized with an anti-DNP-egg albumin guinea pig serum were killed with a thiopentbarbital anesthetia. Their lungs were perfused by way of the pulmonary artery with a Tyrode's solution. The lungs were removed and fragmented. A definite weight of 100 mg lung fragments, which was distributed into individual tubes and suspended in 1 ml of Tyrode's solution, was challenged with the antigen (DNP-egg albumin, final concentration: 0.3 μg/ml) at 37° C. for 15 min. The test compounds obtained in Example, which were dissolved or suspended in Tyrode's solution, were added 10 min before antigen challenge. The reaction was stopped by immersing in ice cold water, and then centrifuged. The amount of histamine in the supernatant fluid was measured by using fluoremetric method according to Shore et al.
A: amount of histamine released by the antigen stimulation in the presence of a compound of the present invention
B: amount of histamine released spontaneously
C: amount of histamine released by the antigen stimulation.

isolated heart = experiment: Langendorff perfused isolated heart: perfusion pressure, contractive force, heart rate; set-up: species or system Wistar male rat; conditions: for Contractive force (Δ %) / Heart rate (Δ %) / Perfusion pressure (Δ %): means value ± S.D., n = 3-4
Experimental: Hearts were isolated from Std; Wistar male rats weighing 200-300 g (9-10 weeks old). The hearts were perfused using Langendorff's apparatus at a flow rate of 8 ml/min. As a perfusate, Krebs-Henseleit-bicarbonate solution (37° C., pH 7.4) containing 11 mM glucose, oxygenated with a mixed gas of 95% O2 and 5% CO2 was used. The heart was preloaded with an initial resting tension of 2.0 g and paced at 200-300 beats min^-1. After the hearts were allowed to be stable for 30-60 minutes, 0.1 ml of a solution of each test compound in 10% DMSO was added thereto to be a concentration of 0.1, 1.0, 10 or 100 μg of each compound per heart.
Myocardial contractile force was isometrically measured by means of a force-displacement transducer (Type: TB-612T, made by Nihon Kohden Kogyo KK) connected to the apex of the heart through a thread. Coronary perfusion pressure was monitored by an electric manometer (Type: MPU-0.5, made by Nihon Kohden Kogyo KK) connected to a side branch of the aortic cannule.
[formula] A: value before adding a test compound B: value after adding a test compound

[2] = biological target: T1, histamine-induced constriction of tracheal smooth muscle (Cavia porcellus, UniProt P31389); experiment: Antihistaminic activity (isolated tracheal smooth muscle chain strips, histamine constriction); assay type: cell-based, Hartley male guinea pig; conditions: guinea pig tracheal strip; compound 5 min prior to histamine; Van Rossum; read-out: pA2 (converted)
T1 construct: Isolated tracheal smooth muscle chain strips were prepared by a usual method; from tissue; host or cells: isolated tracheal smooth muscle chain strips of Hartley male guinea pigs
T1 sequence (P31389 whole entry): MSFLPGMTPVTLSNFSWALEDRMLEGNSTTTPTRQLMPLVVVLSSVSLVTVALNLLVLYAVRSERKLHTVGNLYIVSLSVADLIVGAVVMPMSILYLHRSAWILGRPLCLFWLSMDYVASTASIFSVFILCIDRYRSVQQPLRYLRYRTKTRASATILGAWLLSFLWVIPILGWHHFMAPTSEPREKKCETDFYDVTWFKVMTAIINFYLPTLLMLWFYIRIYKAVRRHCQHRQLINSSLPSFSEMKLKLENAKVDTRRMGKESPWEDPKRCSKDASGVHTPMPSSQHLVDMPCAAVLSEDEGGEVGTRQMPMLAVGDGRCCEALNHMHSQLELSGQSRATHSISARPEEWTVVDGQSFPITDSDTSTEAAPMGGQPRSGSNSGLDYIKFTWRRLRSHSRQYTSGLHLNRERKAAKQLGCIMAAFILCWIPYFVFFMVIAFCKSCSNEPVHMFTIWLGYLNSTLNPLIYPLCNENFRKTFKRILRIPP
Experimental: Hartley male guinea pigs weighing 500-600 g were used. Isolated tracheal smooth muscle chain strips were prepared by a usual method and suspended in 2 ml organ bath of Tyrode's solution aerated with 95% O2.5 % CO2 at 37° C. Each strip was attached to an isotonic transducer (made by Nihon Koden Kogyo KK) with a load of 0.5 g. After almost constant contraction, histamine was added cumulatively, until maximum constriction was obtained. The constriction of tracheal strip was recorded by Servocorder (made by Giraphtec KK). The strip was washed with Tyrode's solution and allowed to stabilize. Test compound was to the bath 5 min prior to the addition of histamine and the response curve to the histamine was repeated. The pA2 values were calculated using the techniques of Van Rossum.

[3] = Acute oral toxicity (LD50); conditions: mouse, in vivo, mice 22-27 g, ddY, male, 5 weeks
Experimental: The LD50 of the compounds obtained in Examples 1, 34, 37, 40 and 44 were more than 500 mg/kg when these compounds were given orally to mice weighing 22-27 g (ddY, male, 5 weeks).

[4] = 1 μg/heart, ** p <0.01 vs control
[5] = 10 μg/heart, ** p <0.01 vs control
[6] = 100 μg/heart, ** p <0.01 vs control

SMILES	IC25 [1] [µM]	Contractive force (Δ %) (isolated heart; 0.1 μg/heart) [%]	Heart rate (Δ %) (isolated heart; 0.1 μg/heart) [%]	Heart rate (Δ %) (isolated heart; 1 μg/heart) [%]	Contractive force (Δ %) (isolated heart; [4]) [%]	Perfusion pressure (Δ %) (isolated heart; [4]) [%]	Contractive force (Δ %) (isolated heart; [5]) [%]	Heart rate (Δ %) (isolated heart; [5]) [%]	Perfusion pressure (Δ %) (isolated heart; [5]) [%]	Contractive force (Δ %) (isolated heart; [6]) [%]	Heart rate (Δ %) (isolated heart; [6]) [%]	Perfusion pressure (Δ %) (isolated heart; [6]) [%]	Kb [2] [µM]	LD50 [3] [mg/kg]	other results
CC(C)c1ccc2oc3nc(N)c(C(=O)O)cc3c(=O)c2c1 [Amlexanox, reference compound]	30	–	–	–	–	–	–	–	–	–	–	–	–	–	–
COc1ccc([C@@H]2Sc3ccccc3N(CCN(C)C)C(=O)[C@@H]2OC(C)=O)cc1 [Diltiazem hydrochloride, reference compound]	–	3.5 ± 6.9	-2.7 ± 1.8	-3.5 ± 2.4	7.0 ± 16.1	-32.1 ± 6.9	-67.1 ± 17.5	-25.9 ± 30.3	-47.1 ± 1.4	-86.5 ± 7.0	-71.4 ± 11.9	-48.8 ± 1.4	–	–	contractive force (in words) (isolated heart; 10 μg/heart): significant lowerings; heart rates (in words) (isolated heart; 10 μg/heart): significant lowerings
CS(=O)(=O)Nc1ccccc1OCCCN1CCC(OC(c2ccccc2)c2ccccc2)CC1 [Example 1, 4-diphenylmethoxy-1-[3-(2-methanesulfonylaminophenoxy)propyl]piperidine]	1	2.0 ± 3.6	0.7 ± 1.2	-0.7 ± 1.2	11.9 ± 2.4	-24.8 ± 3.0	11.8 ± 2.3	-0.7 ± 1.2	-42.9 ± 3.2	-25.0 ± 6.8	-16.6 ± 15.6	-49.0 ± 4.8	0.002	> 500	Perfusion pressure (Δ %) (isolated heart; 0.1 μg/heart): -8.39 ± 3.4%
CS(=O)(=O)Nc1ccccc1OCCCN1CCC(OC(c2ccc(Cl)cc2)c2ccccn2)CC1 (stereo not drawn) [Example 33, 4-[(4-chlorophenyl)-2-pyridylmethoxy]-1-[3-(2-methanesulfonylaminophenoxy)propyl]piperidine]	–	5.0 ± 4.3	-1.2 ± 2.1	-1.9 ± 1.8	13.3 ± 1.9	-19.2 ± 2.2	16.0 ± 4.5	-4.6 ± 4.7	-39.1 ± 5.4	-46.2 ± 13.4	-17.2 ± 10.1	-40.1 ± 5.2	–	–	Perfusion pressure (Δ %) (isolated heart; 0.1 μg/heart): -7.0 ± 6.1%
CS(=O)(=O)Nc1ccccc1OCCCN1CCC(OC(c2ccccc2)c2cccnc2)CC1 (stereo not drawn) [Example 34 (fumarate)]	1	–	–	–	–	–	–	–	–	–	–	–	0.000126	–	–
CS(=O)(=O)Nc1ccccc1OCCCN1CCC(OC(c2ccccc2)c2cccnc2)CC1 (stereo not drawn) [Example 34, 4-(phenyl-3-pyridylmethoxy)-1-[3-(2-methanesulfonylaminophenoxy)propyl]piperidine]	–	–	–	–	–	–	–	–	–	–	–	–	–	> 500	–
CS(=O)(=O)Nc1ccccc1OCCCN1CCC(OC(c2ccccc2)c2cccs2)CC1 (stereo not drawn) [Example 36 (fumarate)]	0.1	–	–	–	–	–	–	–	–	–	–	–	0.00251	–	–
CC(CCOc1ccccc1NS(C)(=O)=O)N1CCC(OC(c2ccccc2)c2cccs2)CC1 (stereo not drawn) [Example 37, 4-(phenyl-2-thienylmethoxy)-1-[3-(2-methanesulfonylaminophenoxy)-1-methylpropyl]piperidine]	0.1	–	–	–	–	–	–	–	–	–	–	–	0.00398	> 500	–
CS(=O)(=O)Nc1ccccc1OC/C=C\CN1CCC(OC(c2ccccc2)c2cccs2)CC1 (stereo not drawn) [Example 40, 4-(phenyl-2-thienylmethoxy)-1-[4-(2-methanesulfonylaminophenoxy)-2(Z)-butenyl]piperidine]	0.1	–	–	–	–	–	–	–	–	–	–	–	0.00631	> 500	–
CS(=O)(=O)Nc1ccccc1OCCCN1CCC(OC(c2ccsc2)c2ccsc2)CC1 [Example 44 (fumarate)]	0.03	–	–	–	–	–	–	–	–	–	–	–	0.00251	–	–
CS(=O)(=O)Nc1ccccc1OCCCN1CCC(OC(c2ccsc2)c2ccsc2)CC1 [Example 44, 4-di(3-thienyl)methoxy-1-[3-(2-methanesulfonylaminophenoxy)propyl]piperidine]	–	8.8 ± 2.5	-5.7 ± 1.4	-3.6 ± 4.1	19.1 ± 5.7	-28.9 ± 3.0	16.2 ± 11.3	-6.3 ± 1.5	-47.9 ± 4.8	-46.3 ± 19.4	-59.9 ± 11.1	-55.8 ± 3.5	–	> 500	Perfusion pressure (Δ %) (isolated heart; 0.1 μg/heart): -6.0 ± 13.7%
O=c1[nH]c2ccccc2n1CCCN1CCN(C(c2ccccc2)c2ccccc2)CC1 [Oxatomide, reference compound]	100	–	–	–	–	–	–	–	–	–	–	–	0.00126	–	–

— US5190959A, “Piperidine compounds which have useful pharmaceutical activity” (Kaken Pharmaceutical Co. Ltd., priority 1991, dated 1993)
